Assay results: patent US9808425B2, “Targeted liposomes in cancer therapy” (WESTERN UNIVERSITY OF HEALTH SCIENCES, priority 2011, dated 2017)

Tested on: A549 cells
Assay: DNR-mediated cytotoxicity, MTS assay
Format: cell-based
Conditions: Homo sapiens, A549, 72 h, read-out: IC50 AVG
Procedure: Because DNR is a cytotoxic compound, the effectiveness of cystine liposomal DNR as an intracellular delivery system was assessed by relying on cytotoxicity measurements as a measure of DNR uptake. […] Cytotoxicity was measured in A549 cells following the addition of the aforementioned DNR formulations to the cells followed by an incubation period, and determination of cytotoxicity by using a MTS assay. Briefly, an MTS assay is a non radioactive cell proliferative assay of a tetrazolium compound (3-(4,5-dimethylthiazol-2-yl)-5-(3-carboxymethoxyphenyl)-2-(4-sulfophenyl)-2H-tetrazolium, inner salt; MTS) and the electron coupling reagent, phenazine methosulfate (PMS). MTS is bio-reduced by cells to a formazan compound by a reductase enzyme present in metabolically active cells. The absorbance of the formazan compound can be measured at 490 nm wavelength and is directly proportional to the number of living cells. The toxicity was determined using dose response curve to determine IC50. IC50 is the concentration of the test compound required to reduce light absorbance capacity of the cells by 50%.
MTS reagent was prepared by mixing 20% MTS and 1% PMS solution in RPMI 1640 medium of volume 8 ml. […] The amount of formazan was measured at 490 nm wavelength. […]

Q: With `COc1cccc2c1C(=O)c1c(O)c3c(c(O)c1C2=O)C[C@@](O)(C(C)=O)C[C@@H]3O[C@H]1C[C@H](N)[C@H](O)[C@H](C)O1` [Free DNR, daunorubicin] as the molecule, how does the IC50 read?
A: 15.2 µM
